Assay results taken from ChEMBL document CHEMBL5120769, “Sclerotiamides C-H, Notoamides from a Marine Gorgonian-Derived Fungus with Cytotoxic Activities” (J Nat Prod, 2022).
Activity calls are given as the source filed them. No cut-off for these calls is given here.

Key:
SMMC-7721 = assay: Cytotoxicity against human SMMC-7721 cells assessed as reduction in cell viability by MTT assay; assay type: functional, cell-based
HeLa [1] = assay: Cytotoxicity against human HeLa cells assessed as reduction in cell viability by MTT assay; assay type: functional, cell-based
A549 = assay: Cytotoxicity against human A549 cells assessed as reduction in cell viability by MTT assay; assay type: functional, cell-based
HepG2 = assay: Cytotoxicity against human HepG2 cells assessed as reduction in cell viability by MTT assay; assay type: functional, cell-based
HeLa [2] = assay: Inhibition of colony formation in human HeLa cells assessed as reduction in cell colonies at 4 uM after 10 days by crystal violet staining based assay relative to control; assay type: functional; settings: time 10.0 day, DDE = dose-dependent effect
HeLa [3] = assay: Induction of apoptosis in human HeLa cells assessed as increase in late apoptotic cells at 1 to 10 uM after 24 hrs by Annexin V staining based flow cytometric analysis; assay type: functional, cell-based; settings: dose 1-10 µM
HeLa [4] = assay: Induction of apoptosis in human HeLa cells assessed as increase in caspase 3 protein expression at 1 to 10 uM after 24 hrs by Western blot analysis; assay type: functional, cell-based; settings: dose 1-10 µM, DDE = dose-dependent effect
HeLa [5] = assay: Induction of apoptosis in human HeLa cells assessed as increase in early apoptotic cells at 1 to 10 uM after 24 hrs by Annexin V staining based flow cytometric analysis; assay type: functional, cell-based; settings: dose 1-10 µM
HeLa [6] = assay: Activation of MAPK signalling pathway in human HeLa cells assessed as increase in JNK phosphorylation level at 1 to 10 uM after 24 hrs by western blot analysis; assay type: cell-based; settings: filed as activator, dose 1-10 µM, DDE = dose-dependent effect
HeLa [7] = assay: Induction of apoptosis in human HeLa cells assessed as nuclear condensation at 1 to 10 uM after 24 hrs by Hoechst 33342 staining based fluorescence microscopic assay; assay type: functional, cell-based; settings: dose 1-10 µM
HeLa [8] = assay: Induction of apoptosis in human HeLa cells assessed as decrease in Bcl-2 protein expression at 1 to 10 uM after 24 hrs by Western blot analysis; assay type: functional, cell-based; settings: dose 1-10 µM, DDE = dose-dependent effect
HeLa [9] = assay: Induction of apoptosis in human HeLa cells assessed as increase in Bax protein expression at 1 to 10 uM after 24 hrs by Western blot analysis; assay type: functional, cell-based; settings: dose 1-10 µM, DDE = dose-dependent effect
HeLa [10] = assay: Induction of apoptosis in human HeLa cells assessed as increase in cytochrome C protein expression at 1 to 10 uM after 24 hrs by Western blot analysis; assay type: functional, cell-based; settings: dose 1-10 µM, DDE = dose-dependent effect
HeLa [11] = assay: Activation of MAPK signalling pathway in human HeLa cells assessed as increase in p38 phosphorylation level at 1 to 10 uM after 24 hrs by western blot analysis; assay type: cell-based; settings: filed as activator, dose 1-10 µM, DDE = dose-dependent effect
HeLa [12] = assay: Activation of MAPK signalling pathway in human HeLa cells assessed as increase in ERK phosphorylation level at 1 to 10 uM after 24 hrs by western blot analysis; assay type: cell-based; settings: filed as activator, dose 1-10 µM, DDE = dose-dependent effect
HeLa [13] = assay: Induction of apoptosis in human HeLa cells assessed as increase in p53 protein expression at 1 to 10 uM after 24 hrs by Western blot analysis; assay type: functional, cell-based; settings: dose 1-10 µM, DDE = dose-dependent effect
HeLa [14] = assay: Induction of apoptosis in human HeLa cells assessed as increase in cleaved PARP protein expression at 1 to 10 uM after 24 hrs by Western blot analysis; assay type: functional, cell-based; settings: dose 1-10 µM, DDE = dose-dependent effect
HeLa [15] = assay: Induction of cell cycle arrest in human HeLa cells assessed as accumulation at G2 phase at 1 to 5 uM after 24 hrs by Propidium iodide staining based flow cytometric analysis (reference value: 23%); assay type: functional; settings: dose 1-5 µM
HeLa [16] = assay: Induction of ROS generation in human HeLa cells at 1 to 10 uM after 24 hrs by DCFH-DA staining based fluorescence microscopic assay; assay type: functional, cell-based; settings: dose 1-10 µM
HeLa [17] = assay: Induction of mitochondrial membrane potential loss in human HeLa cells at 1 to 10 uM after 24 hrs by JC1 staining based flow cytometric analysis; assay type: functional, cell-based; settings: dose 1-10 µM

CC1(C)C=Cc2c(ccc3c4c([nH]c23)C(C)(C)[C@@H]2C[C@]35CCCN3C(=O)[C@]23[C@H]4NC(C)(C)N3C5=O)O1
IC50 (SMMC-7721): > 10 µM | IC50 (HeLa [1]): > 10 µM | IC50 (A549): > 10 µM | IC50 (HepG2): > 10 µM

Cc1c(O)c(C)c2oc(=O)c(C3=C4C(=[N+]([O-])c5c4ccc4c5C=CC(C)(C)O4)C(C)(C)[C@@H]4C[C@]56CCCN5C(=O)[C@]34NC6=O)c(O)c2c1C
IC50 (SMMC-7721): > 10 µM | IC50 (HeLa [1]): > 10 µM | IC50 (A549): > 10 µM | IC50 (HepG2): > 10 µM

Cc1c(O)c(C)c2oc(=O)c3c(c2c1C)O[C@@]12C(=[N+]([O-])c4c1ccc1c4C=CC(C)(C)O1)C(C)(C)[C@@H]1C[C@]45CCCN4C(=O)[C@]1(NC5=O)[C@H]32
IC50 (SMMC-7721): 6.7 µM | IC50 (HeLa [1]): 7.9 µM | IC50 (A549): 7.8 µM | IC50 (HepG2): 8.1 µM

CC1(C)C=Cc2c(ccc3c2[N+]([O-])=C2C(C)(C)C4C[C@]56CCCN5C(=O)C4(NC6=O)[C@@H](O)[C@@]23O)O1 (some centres undefined)
IC50 (SMMC-7721): > 10 µM | IC50 (HeLa [1]): > 10 µM | IC50 (A549): > 10 µM | IC50 (HepG2): > 10 µM

CC1(C)C=Cc2c(ccc3c4c(n(O)c23)C(C)(C)[C@@H]2C[C@]35CCCN3C(=O)[C@]23[C@H]4NC(C)(C)N3C5=O)O1
IC50 (SMMC-7721): 1.5 µM | inhibition (HeLa [2]): Dde | Activity (HeLa [3]): Active | Activity (HeLa [4]): Dde | IC50 (HeLa [1]): 1.7 µM | Activity (HeLa [5]): Active | Activity (HeLa [6]): Dde | Activity (HeLa [7]): Active | Activity (HeLa [8]): Dde | Activity (HeLa [9]): Dde | Activity (HeLa [10]): Dde | Activity (HeLa [11]): Dde | IC50 (A549): 1.6 µM | Activity (HeLa [12]): Dde | Activity (HeLa [13]): Dde | IC50 (HepG2): 1.8 µM | Activity (HeLa [14]): Dde | Activity (HeLa [15]): 38% | Activity (HeLa [16]): Active | Activity (HeLa [17]): Active

CC(=O)O[C@H]1C(=O)[C@@]2(C)[C@H]([C@H](OC(=O)c3ccccc3)[C@]3(O)C[C@H](OC(=O)[C@H](O)[C@@H](NC(=O)c4ccccc4)c4ccccc4)C(C)=C1C3(C)C)[C@]1(OC(C)=O)CO[C@@H]1C[C@@H]2O [PACLITAXEL]
IC50 (SMMC-7721): 0.07 µM | IC50 (HeLa [1]): 0.05 µM | IC50 (A549): 0.05 µM | IC50 (HepG2): 0.06 µM

CC1(C)C=Cc2c(ccc3c2N2O[C@@H]4O[C@@]2(C3=O)C(C)(C)C2C[C@]35CCCN3C(=O)C24NC5=O)O1 (some centres undefined)
IC50 (SMMC-7721): > 10 µM | IC50 (HeLa [1]): > 10 µM | IC50 (A549): > 10 µM | IC50 (HepG2): > 10 µM
